37 molecules from ChEMBL document CHEMBL3272085, “Quantitative structure-activity relationships. 2. A mixed approach, based on Hansch and Free-Wilson Analysis” (1976) can be followed below.

Common to all, as to type: functional
One experiment concerns Aspergillus niger. The experiment can be described thus: Antimicrobial activity against Aspergillus niger.
The subject of a further experiment is Bacillus cereus. The experiment can be described thus: Antimicrobial activity against Bacillus cereus.
For the next experiment, the system named is Micrococcus luteus. The experiment can be described thus: Antimicrobial activity against Sarcina lutea.
The subject of another experiment is Staphylococcus aureus. The experiment can be described thus: Antimicrobial activity against Staphylococcus aureus.
The subject of the next experiment is Wickerhamomyces anomalus. The experiment in a line: Antimicrobial activity against Hansenula anomala.
The subject of the next experiment is Bacillus subtilis. The experiment can be described thus: Antimicrobial activity against Bacillus subtilis.
A further experiment concerns Enterococcus faecalis. The experiment can be described thus: Antimicrobial activity against Streptococcus faecalis.

On to `Oc1ccccc1C1CCCCC1`, for which the “log(1/C)” value with Aspergillus niger was determined as 4.
With `Cc1ccc(C(C)(C)C)c(O)c1`, the “log(1/C)” value in the experiment with Aspergillus niger was 3.7.
Turning to `Cc1cc(C)cc(O)c1`, the “log(1/C)” value in the experiment with Aspergillus niger turned out to be 3.26.
On to `Cc1cc(Cl)ccc1O`, for which, in the experiment with Aspergillus niger, the “log(1/C)” value is on record as 3.7.
`CC(C)c1ccccc1O`: the “log(1/C)” value in the experiment on Aspergillus niger was 3.35.
Take `Cc1cccc(C)c1O`: the “log(1/C)” value with Aspergillus niger is given as 3.35.
As for `C=C(C)C(=O)Oc1ccccc1`, the “log(1/C)” value in the experiment on Bacillus cereus, in the experiment with Micrococcus luteus, in the experiment on Staphylococcus aureus, with Wickerhamomyces anomalus, in the experiment with Bacillus subtilis and in the experiment on Enterococcus faecalis was 2.89 in each case.
Consider `C=C(C)C(=O)Oc1ccccc1Cl`, for which the “log(1/C)” value in the experiment with Bacillus cereus was found to be 3.08; in the experiment on Micrococcus luteus, 3.08; in the experiment with Staphylococcus aureus it was 3.08; with Wickerhamomyces anomalus, 3.28; with Bacillus subtilis, 3.08; in the experiment on Enterococcus faecalis it was 3.08.
With `C=C(C)C(=O)Oc1ccc(Cl)cc1`, the “log(1/C)” value with Bacillus cereus worked out at 3.25; with Micrococcus luteus it was 3.25; in the experiment on Staphylococcus aureus, 3.12; in the experiment on Wickerhamomyces anomalus it was 3.25; in the experiment with Bacillus subtilis, 3.25; with Enterococcus faecalis, 3.25.
Regarding `Cc1cc(Cl)cc(C)c1O`, the “log(1/C)” value with Aspergillus niger came to 4.4.
`CC(C)c1cc(Cl)ccc1O`: in the experiment with Aspergillus niger, the “log(1/C)” value worked out at 4.3.
Turning to `Cc1cc(O)c(C(C)(C)C)cc1Cl`, the “log(1/C)” value in the experiment with Aspergillus niger was determined as 4.3.
On to `Oc1ccc(Cl)cc1C1CCCCC1`, for which the “log(1/C)” value in the experiment on Aspergillus niger is reported as 4.4.
On to `Oc1ccc(Cl)cc1-c1ccccc1`, for which, in the experiment with Aspergillus niger, the “log(1/C)” value was 4.52.
As for `CCCCCCCCCCCCCC[N+](C)(C)Cc1ccc(Cl)c(Cl)c1`, the “log(1/C)” value in the experiment on Staphylococcus aureus was determined as 4.04.
`CCCCCCCCCCCCCCCC[N+](C)(C)Cc1ccc(Cl)c(Cl)c1`: in the experiment with Staphylococcus aureus, the “log(1/C)” value is listed as 3.39.
Same read-out and setting: for `CCCCCCCCCCCCCCCCCC[N+](C)(C)Cc1ccc(Cl)c(Cl)c1` the value was 3.11; for `CCCCCCCCCCCC[N+](C)(C)Cc1ccc(OC)c(OC)c1`, 3.71; for `CCCCCCCCCCCCCC[N+](C)(C)Cc1ccc(OC)c(OC)c1`, 4.11.
For `CCCCCCCCCCCCCCCC[N+](C)(C)Cc1ccc(OC)c(OC)c1`, in the experiment with Staphylococcus aureus, the “log(1/C)” value came to 3.41.
In the case of `CCCCCCCC[N+](C)(C)Cc1ccc2c(c1)OCO2`, in the experiment on Staphylococcus aureus, the “log(1/C)” value was 2.04.
Same read-out and setting: to `CCCCCCCCCC[N+](C)(C)Cc1ccc2c(c1)OCO2` belongs 3.08.
Still for that read-out and setting: for `CCCCCCCCCCCC[N+](C)(C)Cc1ccc2c(c1)OCO2` the value was 4.
Regarding `CCCCCCCCCCCCCC[N+](C)(C)Cc1ccc2c(c1)OCO2`, the “log(1/C)” value with Staphylococcus aureus is 4.23.
As to `CCCCCCCCCCCCCCCC[N+](C)(C)Cc1ccc2c(c1)OCO2`, in the experiment on Staphylococcus aureus, the “log(1/C)” value was 4.2.
Turning to `CCCCCCCCCCCCCCCCCC[N+](C)(C)Cc1ccc2c(c1)OCO2`, in the experiment with Staphylococcus aureus, the “log(1/C)” value was found to be 3.23.
As to `CCCCCCCCCCCC[N+](C)(C)Cc1cc([N+](=O)[O-])ccc1O`, in the experiment on Staphylococcus aureus, the “log(1/C)” value was determined as 2.7.
As for `Oc1ccccc1-c1ccccc1` [2-PHENYLPHENOL], in the experiment with Aspergillus niger, the “log(1/C)” value was found to be 4.1.
For the molecule `CCCCCCCCCCCC[N+](C)(C)Cc1ccccc1` [BENZODODECINIUM], in the experiment on Staphylococcus aureus, the “log(1/C)” value turned out to be 3.74.
As to `CCCCCCCCCCCCCCCC[N+](C)(C)Cc1ccccc1` [CETALKONIUM], the “log(1/C)” value in the experiment with Staphylococcus aureus is 3.92.
Consider `Cc1cc(O)ccc1Cl` [CHLOROCRESOL], for which, in the experiment on Aspergillus niger, the “log(1/C)” value is listed as 3.7.
With `Cc1cc(O)cc(C)c1Cl` [CHLOROXYLENOL], the “log(1/C)” value with Aspergillus niger amounted to 4.22.
Take `Cc1cccc(O)c1` [METACRESOL]: in the experiment with Aspergillus niger, the “log(1/C)” value worked out at 2.68.
Take `CCCCCCCCCCCCCC[N+](C)(C)Cc1ccccc1` [MIRISTALKONIUM ION]: in the experiment on Staphylococcus aureus, the “log(1/C)” value turned out to be 4.17.
With `Cc1ccccc1O` [ORTHOCRESOL], the “log(1/C)” value in the experiment on Aspergillus niger is 2.7.
On to `Oc1ccc(Cl)cc1` [PARACHLOROPHENOL], for which, in the experiment with Aspergillus niger, the “log(1/C)” value is 3.35.
As to `Oc1ccccc1` [PHENOL], in the experiment on Aspergillus niger, the “log(1/C)” value came out at 2.35.
